The record followed here is PubChem BioAssay (NCI).

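In this assay, cells in 96-well plates receive the compound at five concentrations for 48 hours. Endpoints are linearly interpolated between the surrounding concentrations. The concentration for full growth arrest is given as TGI.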

Test systems include T-47D breast; OVCAR-3 ovarian; MCF7 breast; NCI/ADR-RES ovarian; MOLT-4 leukemia; IGROV1 ovarian; SW-620 colon; OVCAR-8 ovarian; SNB-75 CNS; BT-549 breast.
What all share (assay): NCI-60 cell line screen, 48 h

With `Cc1ccc(S(=O)(=O)N/N=C/C(=C/c2ccc(Cl)cc2)CC(/C=N/NS(=O)(=O)c2ccc(C)cc2)=C\c2ccc(Cl)cc2)cc1`, the TGI is 19.2 µM with T-47D breast; 12.2 µM with OVCAR-3 ovarian; 12.6 µM in the assay on MCF7 breast; 94.3 µM with NCI/ADR-RES ovarian; 6.62 µM in the assay on MOLT-4 leukemia; 35.7 µM with IGROV1 ovarian. For the same compound, the TGI in the assay with SW-620 colon came to 27.6 µM; in the assay with OVCAR-8 ovarian, 12.8 µM; in the assay with SNB-75 CNS, 60.1 µM.
For the compound `CCC(C)(C)/C(CC(O)(C(F)(F)F)C(F)(F)F)=N\O`, the TGI in the assay with T-47D breast, with OVCAR-3 ovarian, in the assay on NCI/ADR-RES ovarian, in the assay with MOLT-4 leukemia, in the assay with IGROV1 ovarian and in the assay with SW-620 colon was above 100 µM in each case. In addition, the TGI in the assay with SNB-75 CNS was above 100 µM.
For `CC[N+](CC)(CCNCC(N)=O)CC(N)=O`, the TGI in the assay with OVCAR-3 ovarian, in the assay with MCF7 breast, in the assay with BT-549 breast, with NCI/ADR-RES ovarian, with MOLT-4 leukemia and in the assay on IGROV1 ovarian was above 10 µM each time. Besides, the TGI in the assay on SW-620 colon, with OVCAR-8 ovarian and in the assay on SNB-75 CNS was above 10 µM each time.
As to `c1ccc2sc(C3(N4CCCC4)CCCCCC3)cc2c1`, the TGI with OVCAR-3 ovarian was found to be 27.6 µM; in the assay with MCF7 breast, 33.2 µM; with BT-549 breast, 51.9 µM; in the assay with NCI/ADR-RES ovarian, 44.4 µM; in the assay on MOLT-4 leukemia, 29.3 µM; in the assay on IGROV1 ovarian, 46.2 µM. Further, the TGI is 34.4 µM in the assay on SW-620 colon, 37 µM with OVCAR-8 ovarian and 34.5 µM in the assay with SNB-75 CNS.
As for `CC(=O)c1c2c(cc3c1CC1(Cc4ccccc4C1=O)C3)CCC2` (configuration not stated), the TGI was 49.3 µM in the assay with T-47D breast; 52.7 µM with OVCAR-3 ovarian; 44.3 µM with MCF7 breast; 53.3 µM with NCI/ADR-RES ovarian; 29.1 µM in the assay with MOLT-4 leukemia; above 100 µM in the assay with IGROV1 ovarian. The TGI in the assay on SW-620 colon is above 100 µM; with OVCAR-8 ovarian it was 89.1 µM; with SNB-75 CNS it was above 100 µM.
As to `COc1cc(C[S+]2CCCC2)c(SC)cc1C[S+]1CCCC1`, the TGI in the assay with OVCAR-3 ovarian, in the assay with MOLT-4 leukemia, in the assay with IGROV1 ovarian, with SW-620 colon, in the assay on OVCAR-8 ovarian and in the assay on SNB-75 CNS was above 100 µM throughout.
Take `COc1cc(/C=C2\CCC(C)C3C2=NN(C(C)=O)C3c2cc(OC)c(OC)c(OC)c2)cc(OC)c1OC` (configuration not stated): the TGI in the assay on T-47D breast was 67.8 µM; in the assay with OVCAR-3 ovarian, above 100 µM; in the assay with MCF7 breast, above 100 µM; in the assay on BT-549 breast, above 100 µM; in the assay on MOLT-4 leukemia, above 100 µM; in the assay with IGROV1 ovarian it was 9.7 µM. The TGI is above 100 µM with SW-620 colon, above 100 µM with OVCAR-8 ovarian and above 54.6 µM in the assay with SNB-75 CNS.
Consider `CN(c1ccc(Cl)cc1)S(=O)(=O)c1cccc([N+](=O)[O-])c1`, for which the TGI with OVCAR-3 ovarian, in the assay on MCF7 breast, with BT-549 breast, with NCI/ADR-RES ovarian, with MOLT-4 leukemia and in the assay on IGROV1 ovarian was above 100 µM in each case. The TGI with SW-620 colon, with OVCAR-8 ovarian and in the assay on SNB-75 CNS was above 100 µM throughout.
Regarding `CC1=C(C#N)C(C#N)(C#N)C(NN(C)C)C1` (configuration not stated), the TGI with T-47D breast is 27.8 µM; in the assay on MCF7 breast it was 77.3 µM; in the assay with NCI/ADR-RES ovarian it was above 100 µM; with MOLT-4 leukemia it was 79.5 µM; in the assay with IGROV1 ovarian, 40.9 µM; in the assay with SW-620 colon, above 100 µM. For the same compound, the TGI in the assay with OVCAR-8 ovarian was above 100 µM; in the assay with SNB-75 CNS it was 40.3 µM.
As to `CC1CC(N)=Nc2ccccc2N1` (configuration not stated), the TGI with OVCAR-3 ovarian, with BT-549 breast, in the assay with NCI/ADR-RES ovarian, with MOLT-4 leukemia, in the assay with IGROV1 ovarian and in the assay on SW-620 colon was above 100 µM throughout. The TGI in the assay with OVCAR-8 ovarian and in the assay with SNB-75 CNS was above 100 µM throughout.
As to `O=C1OC[C@@H]2Cc3cc4c(cc3[C@H](c3ccc5c(c3)OCO5)[C@@H]12)OCO4`, the TGI in the assay on OVCAR-3 ovarian, with MCF7 breast, in the assay with BT-549 breast, in the assay with NCI/ADR-RES ovarian, in the assay with MOLT-4 leukemia and in the assay with OVCAR-8 ovarian was above 25 µM in each case.
As to `C=C1CC(c2ccc(OCCCN3C(=O)c4ccccc4C3=O)c(OC)c2)OC1=O` (configuration not stated), the TGI is 9.96 µM with T-47D breast; 8.96 µM in the assay with OVCAR-3 ovarian; 0.48 µM in the assay on MCF7 breast; above 100 µM in the assay with NCI/ADR-RES ovarian; 2.72 µM in the assay on MOLT-4 leukemia; 8.41 µM with IGROV1 ovarian. The TGI with SW-620 colon came out at 4.75 µM; with OVCAR-8 ovarian it was 15.1 µM; in the assay on SNB-75 CNS it was 8.06 µM.
Regarding `CC(=O)n1nc(-c2ccccc2)n(/N=C/c2ccc([N+](=O)[O-])cc2)c1=O`, the TGI with T-47D breast, with OVCAR-3 ovarian, with BT-549 breast, with NCI/ADR-RES ovarian, in the assay with MOLT-4 leukemia and in the assay on IGROV1 ovarian was above 100 µM throughout. For the same compound, the TGI in the assay on SW-620 colon, in the assay with OVCAR-8 ovarian and in the assay on SNB-75 CNS was above 100 µM in each case.
In the case of `CCC1(CC)SCc2nc3ccccc3n21`, the TGI is above 100 µM in the assay on T-47D breast; above 100 µM in the assay with OVCAR-3 ovarian; 93.7 µM with MCF7 breast; 86 µM with NCI/ADR-RES ovarian; 84.3 µM with MOLT-4 leukemia; above 100 µM with IGROV1 ovarian. The results for the TGI with SW-620 colon, with OVCAR-8 ovarian and in the assay with SNB-75 CNS were above 100 µM, above 100 µM and 51.8 µM, respectively.
Take `CC(=O)NC1C(OCc2ccccc2)OC(CO)C(O)C1OC(C)C(=O)NC(C)C(=O)NC(CCC(=O)NCCCNc1c2ccccc2nc2cccc([N+](=O)[O-])c12)C(N)=O` (configuration not stated): the TGI in the assay with T-47D breast was above 100 µM; in the assay on OVCAR-3 ovarian, 6.53 µM; in the assay on MCF7 breast, above 100 µM; with NCI/ADR-RES ovarian, 65.7 µM; in the assay on MOLT-4 leukemia it was above 100 µM; with IGROV1 ovarian, 72.9 µM. The TGI in the assay with SW-620 colon was 11.6 µM; in the assay with OVCAR-8 ovarian it was 9.07 µM; in the assay with SNB-75 CNS, 9.92 µM.
Consider `C=CC(Br)(CBr)CCC(Cl)C(C)C` (configuration not stated), for which the TGI with OVCAR-3 ovarian was 4.13 µM; in the assay on MCF7 breast, 3.07 µM; in the assay on BT-549 breast, 2.96 µM; in the assay on MOLT-4 leukemia, 4.31 µM; with IGROV1 ovarian, 8.43 µM; in the assay on SW-620 colon, 3.35 µM. The TGI with SNB-75 CNS turned out to be 3.04 µM.
